Series [1] has as its system NDM-5. The following applies: ampicillin as substrate; cited from earlier work.
Series [2] relates to VIM-1. The following applies: ampicillin as substrate; cited from earlier work. An excerpt:
(§1) Abbreviations: S, susceptible; I, intermediate; R, resistant.

Series [3] concerns OXA-48. The following applies: ampicillin as substrate; cited from earlier work.
Source text: as §1

Series [4] deals with E. coli TEM-16. Put plainly: VITEK 2 AST antimicrobial susceptibility testing. The class given is cell-based, Escherichia coli. How it is done: (§2) Beta-lactamase clinical samples were collected from University Hospitals Leuven and tested for ESBL production using the disk diffusion method. The beta-lactamase reference isolates were purchased from International Health Management Associates (IHMA). Bacterial strains were cultivated in Mueller–Hinton Broth (MHB, Difco) at 37 °C. Whenever required, growth media were supplemented with appropriate antibiotics to the medium or plates (kanamycin 30 µg/mL, L-arabinose 0.5 mg/mL, and IPTG […]). Escherichia coli BL21 (ThermoFisher Scientific, Belgium) was used for cloning and plasmid amplification. For the selection of antibiotic resistant colonies, E. coli carrying plasmids was grown in LB agar plates supplemented with the relevant antibiotic. Bacterial CFU counting was done on blood agar plates (BD Biosciences, Belgium) or MHA agar plates. Species identification and antibiograms for all clinical isolates were performed using MALDI-Tof and VITEK® 2 automated system (BioMérieux, France).
(§3) Khodaparast et al Supplementary data
(§4) study. […] Abbreviations: S,
(§5) susceptible; I, intermediate; R, resistant.

Series [5] deals with E. coli NDM5b. Put plainly: VITEK 2 AST antimicrobial susceptibility testing. Format: cell-based, Escherichia coli. How it is done:
as §2, §3, §4, §5

In series [6] the test system is E. coli NDM5a. Put plainly: VITEK 2 AST antimicrobial susceptibility testing. The class given is cell-based, Escherichia coli. How it is done:
as §2, §3, §4, §5

In series [7] the test system is E. coli TEM-206. Put plainly: VITEK 2 AST antimicrobial susceptibility testing. The class given is cell-based, Escherichia coli. The following applies: E. coli TEM-206. How it is done: as §2, §3, §4, §5
Series [8] has as its system E. coli TEM-104. Put plainly: VITEK 2 AST antimicrobial susceptibility testing. Format: cell-based, Escherichia coli. How it is done: as §2, §3, §4, §5
The test system of series [9] is E. coli SHV1 (APHA). Put plainly: VITEK 2 AST antimicrobial susceptibility testing. The class given is cell-based, Escherichia coli. How it is done:
as §2, §3, §4, §5

In series [10] the test system is E. coli TEM-148. Put plainly: VITEK 2 AST antimicrobial susceptibility testing. Format: cell-based, Escherichia coli. How it is done: as §2, §3, §4, §5
Series [11] has as its system E. coli TEM-30. The class given is cell-based, Escherichia coli. How it is done: as §2, §3, §4, §5
The subject of series [12] is TEM-1. The following applies: ampicillin as substrate; cited from earlier work.
The test system of series [13] is uro-pathogenic E. coli strain (UPEC strain blaTEM-1). Put plainly: MIC of ampicillin with or without 32 µg/mL TEM3.2 or tazobactam. Format: cell-based, Escherichia coli. How it is done:
(§6) We also performed a tolerability study using a dose escalation method by administering the peptide at 2, 5, 10, 15, and 20 mg/kg via different parenteral routes: intravenous (IV), intraperitoneal (IP), and subcutaneous (SC) in female C57BL/6JAX mice, aged 8–10 weeks (Suppl Table 4). […] Vehicle alone (0.9% NaCl) was also administered (IV). After 24 h the animals were sacrificed and the bacterial load in the bladder, kidney, and ureter was quantified by determining the number of colony-forming units (CFU) per mL of tissue extract (Fig. 7E–G).
Determination of MIC values was performed using the broth microdilution method according to the EUCAST guideline, which was performed in 96-well polystyrene flat-bottom microtiter plates (BD Biosciences). Briefly, a single colony was inoculated into 5 mL Difco™ Mueller–Hinton Broth (BD Biosciences Ref 275730) and grown to the end-exponential growth phase in a shaking incubator at 37 °C. Cultures were subsequently diluted to a MacFarland (0.5 optical density) to reach 10^6 CFU/mL in fresh MHB medium. 50 µl of different concentrations of peptides ranging from 128 to 2 µg/mL were serially diluted to the sterile 96-well plate in MHB. 50 µL of the diluted bacteria in MHB were next pipetted into 96-well plates to reach the final volume of 100 µL. The bacteria grown with the maximum concentration of carrier and medium were considered positive and negative controls, respectively. The plates were statically incubated overnight at 37 °C to allow bacterial growth. OD was measured at 590 nm using a multipurpose ultraviolet–visible plate reader, and the absorbance of the bacterial growth was measured using an absorbance reader.

The target in series [14] is T1, SHV-11 (Klebsiella pneumoniae, UniProt P0AD64, L31Q).
T1 construct: His-tag (N); TEV cleavage site (N); made in house; host or cells: E. coli BL21 (DE3)
Put plainly: Thermal denaturation, Right-Angle Light Scattering (aggregation). The following applies: excess of tazobactam; less marked than for TEM-1. Format: biochemical.

For series [15], the system named is E. coli strain UZ_TEM104. Put plainly: microbe, parasite or virus in culture. Format: cell-based, Escherichia coli.
The target in series [16] is T2, TEM-1 (Escherichia coli, UniProt P62593). The class given is biochemical.
Source text: To satisfy the reviewer’s comment, we have performed urea denaturation in the presence
of a molar excess of tazobactam and compared it to the condition without.
two-state denaturation of the protein with a stable intermediate. The difference between
The plots show a single repeat.
Table 1: Results from fitting 3 replicates
G1 (kcal/mol) G2 (kcal/mol) Sum
Series [17] deals with T2, TEM-1. The class given is biochemical, E. coli. More on the design: His-tag (N); TEV cleavage site (N); made in house; host or cells: E. coli BL21 (DE3).
Source text: Then, we performed a thermal denaturation whilst simultaneously monitoring the intrinsic fluorescence as a measure of the folding status of the molecule (Fig. 1D and Supplementary Fig. 2D) and the static light scattering as a measure of aggregation (Fig. 1E and Supplementary Fig. 2E).
D Heat denaturation of TEM-1 monitored by intrinsic fluorescence plotted as the BaryCentric Mean (BCM) of the fluorescence emission spectrum in the presence (red) and absence (blue) of tazobactam. […] E Temperature-dependent evolution of the Right-Angle Light Scattering (RALS) intensity measured simultaneously with the data in D to monitor protein aggregation. […] F Same data as in E, but showing a dose-titration of the beta-lactamase inhibitor tazobactam.
Series [18] has as its system uro-pathogenic E. coli strain (UPEC strain blaTEM-1). Put plainly: Urinary tract infection model, bacterial load in bladder, kidney, ureter. Format: in vivo, female C57BL/6JAX mice. More on the design: bacterial load, Ureters / bacterial load, Bladder / bacterial load, Kindey: unit: CFU per mL of tissue extract. How it is done: Fig. 7 Evaluation of in vivo use of peptides that induce the aggregation of TEM beta-lactamase. A Lysis of human erythrocytes (hemolysis) was assessed in the presence of the indicated concentrations of TEM3.2 for 2 h at 37 °C, and normalized to the value obtained with 1% of the detergent triton. […] B Cell viability using the CellTiter Blue assay of HeLa cells treated for 24 h with the indicated concentrations TEM 3.2 at 37 °C. […] DAPI (4’,6-diamidino-2-phenylindole) is blue, while CellMask is red. D Experimental workflow of the in vivo model used in this study. E–G Bacterial load of indicated organs of female C57BL/6JAX mice with a urinary tract infection with E. coli strain UZ_TEM104, treated with 30 mg/kg penicillin (oral) as well 10 mg/kg tazobactam (oral) or 10 mg/kg TEM3.2 via the indicated treatment route. IV intravenous, IP intraperitoneal, SC subcutaneously. The data shown is from a single experiment with 12 animals for each group. The result for each animal is shown as a dot. […] The statistically significant differences were determined using ANOVA, followed by Dunnett’s multiple comparison test. […] Source data are provided as a Source Data file.
as §6
To test the efficacy of the peptides, a urinary tract infection model was performed as described previously. Briefly, female C57BL/6Jax mice female mice were deprived of water for at least 1 h. Then, they were anesthetized by IP administration of the mixture of ketamine (Nimatek)/xylazine (XYL-M 2% BE-V170581). The bladder of the mouse was massaged with fingers and pushed down gently to expel the remaining urine. Mice were slowly inoculated urethrally with 50 µL of a bacterial suspension slowly over 5 s to avoid vesicoureteral reflux (10^8 CFU/ mouse) using a sterile catheter (pediatric intravenous-access cannula (GS391350)). The catheter was removed directly after inoculation. After surgery, the animals were visually monitored for full recovery. After 1 h post inoculation, all mice received Ampicillin (30 mg/kg_PO-orally) and at the same time 3 groups of animals received the peptides via different administration routes (10 mg/kg_IV—intravenous; IP—intraperitoneal or SC—sub-cutaneous) and the positive control groups received tazobactam (10 mg/kg, PO). The negative control groups received vehicle or saline (IV administration). 2 h post inoculation, all mice received a second injection with the same concentration of each treatment as explained above. Twenty-four hours post-infection, mice were sacrificed and organs (kidney, bladder, ureter) were washed with PBS and were homogenized (Thermo Savant FastPrep FP120 Homogenizer/24 s). The homogenized tissues were serially diluted and cultured on blood agar plates. The plates were incubated overnight at 37 °C, and the number of bacteria was measured by CFU value.

Series [19] deals with the molecule itself. Put plainly: Thioflavin-T and pFTAA fluorescence kinetics + DLS + transmission electron microscopy; 50 μM TEM3.2 with polyphosphate (PolyP); electron microscopy after 24 h incubation at RT; the peptide is called soluble in buffer alone.
[20] abbreviates: group Tazo, each column one mouse.

“And” between values parts separate entries of the source, which are not always exact repeats. Identical values can stand only once. Counter-ions that a name gives are not always drawn.

T2 sequence (P62593 24-286 limits assumed): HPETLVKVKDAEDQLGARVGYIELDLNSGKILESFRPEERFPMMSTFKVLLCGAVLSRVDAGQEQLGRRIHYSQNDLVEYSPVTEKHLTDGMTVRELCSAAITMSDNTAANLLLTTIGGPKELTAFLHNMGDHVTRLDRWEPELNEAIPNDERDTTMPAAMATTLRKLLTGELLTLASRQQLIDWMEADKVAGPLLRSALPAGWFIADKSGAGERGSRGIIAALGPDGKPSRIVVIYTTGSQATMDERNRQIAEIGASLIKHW
T1 sequence (P0AD64 22-286 L31Q): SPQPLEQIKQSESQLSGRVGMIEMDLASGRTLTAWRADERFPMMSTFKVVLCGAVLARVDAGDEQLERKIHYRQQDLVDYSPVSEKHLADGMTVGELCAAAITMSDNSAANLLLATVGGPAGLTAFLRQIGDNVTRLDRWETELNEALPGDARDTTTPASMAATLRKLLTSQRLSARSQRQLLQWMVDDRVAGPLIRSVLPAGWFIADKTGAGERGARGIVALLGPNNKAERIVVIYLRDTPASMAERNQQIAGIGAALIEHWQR

`CC1(C)S[C@@H]2[C@H](NC(=O)[C@H](N)c3ccccc3)C(=O)N2[C@H]1C(=O)O` [Ampicillin]: the Kcat in series [1] is 1912 s⁻¹; in series [2] it was 37 s⁻¹; in [3], 955 s⁻¹; in [12], 1428 s⁻¹. Besides, the Michaelis-Menten constant (Km) (usually the concentration of substrate that gives half-maximal velocity) in series [1] is 118 µM; in series [2], 917 µM; in [3] it was 395 µM; in series [12], 50 µM. Besides, the Interoretation result in series [4] (E. coli TEM-16), in [5] (E. coli NDM5b), in [6] (E. coli NDM5a), in series [7], in series [8] (E. coli TEM-104) and in series [9] (E. coli SHV154) was “R” in each case. Also, the Interoretation result in series [10] (E. coli TEM-148) and in series [11] (E. coli TEM-30) was “R” each time. The Interpretation result in series [4] (VITEK 2 AST card), in [5] (VITEK 2 AST card), in series [6] (VITEK 2 AST card), in series [8] (VITEK 2 AST card), in [9] (VITEK 2 AST card) and in series [10] (VITEK 2 AST card) was “R” in each case. Moreover, the Interpretation entry in [11] (VITEK 2 AST card) was “R”. The MIC – broadly, the least concentration at which growth counts as inhibited – in series [13] (Escherichia coli, no additive) is 1200 µg/mL.
Take `C[C@]1(Cn2ccnn2)[C@H](C(=O)O)N2C(=O)C[C@H]2S1(=O)=O` [Tazobactam, tazobactam sodium salt]: in series [14], the “effect on aggregation of SHV-11 during thermal denaturation (in words)” value is “a decrease in the aggregation of the protein”. In series [15] (E. coli UZ_TEM104, concentration of additive 50 (mg/mL [sic])), this molecule came in with an MIC penicillin of 400000 µg/mL. For the same molecule, the “fold reduction of the MIC of penicillin G” value in [15] (additive at 50 μg/mL) came to 4 fold. The MIC penicillin in series [15] (in the presence of additive (peptide or tazobactam) at fixed 50 μg/mL) is 400 µg/mL. For the same molecule, the Sum in series [16] (G1 + G2, with molar excess of tazobactam (no tazo 10.40)) is on record as 10.28 kcal/mol. Moreover, the G2 in series [16] (urea denaturation of TEM-1 with molar excess of tazobactam, 3-state fit, 3 replicates (no tazo 5.00)) was 4.03 kcal/mol. The G1 in series [16] (urea denaturation of TEM-1 with molar excess of tazobactam, 3-state fit, 3 replicates (no tazo 5.40)) came out at 6.25 kcal/mol. The “effect on aggregation of TEM-1 during thermal denaturation (in words)” value in series [17] (excess of tazobactam, more marked for TEM-1 than SHV-11) is “a decrease in the aggregation of the protein”. Further, in series [17] (static light scattering during temperature ramp, inhibitor titration), the “effect on aggregation of TEM-1, dose-response (in words)” value is given as “reduce the aggregation of the enzyme in a dose-responsive manner”. The “best reduction of the bacterial load” value in series [18] (10 mg/kg plus 30 mg/kg Ampicillin orally at 60 and 120 min post-infection, CFU at 24 h, most robust in kidney and ureter) worked out at 1.8 log folds. Moreover, in [18] (setting [20]), the “bacterial load, Bladder” value is 26566.7 and 152667 and 97400 and 1 and 3700 and 1433.33 and 3000 and 1800 and 1966.67 and 316733 and 4266.67 and 3266.67; the “bacterial load, Kindey” value was 24000 and 134000 and 72733.3 and 633.333 and 1 (3×) and 10200 and 2066.67 and 17700 and 9833.33 and 4600; the “bacterial load, Ureters” value is 2433.33 and 54400 and 33133.3 and 133.333 and 166.667 and 1 (2×) and 1000 and 800 and 11633.3 and 1900 and 1166.67. Also, in series [13] (32 μg/mL of either TEM3.2 or tazobactam), the “MIC Ampicillin in the presence of additive” value was found to be 25 µg/mL.

B1: Pept-In TEM3.2 (peptide)
peptide: Ac-RLTAFLHNRRPRLTAFLRQRR-NH2
notes: designed tandem of the TEM version (LTAFLHN) and the SHV version (LTAFLRQ) of APR 3, each flanked by Arg, with a Pro linker; also called peptide TEM3.2; source: synthetic peptide (Genscript, >90% purity; also in-house solid-phase synthesis)
For B1, the binding result in series [19] is recorded as “binds”.

The values are drawn from PMC10492782, “Exploiting the aggregation propensity of beta-lactamases to design inhibitors that induce enzyme misfolding” (Nature Communications, 2023).
